Data from US20230025880A1, “FUSED TRICYCLIC COMPOUND AND MEDICINAL USE THEREOF” (JAPAN TOBACCO INC., priority 2020, published 2023).

molecular target: T1, human PDHK2 (hPDHK2) (Homo sapiens, UniProt Q15119); experiment: Inhibitory action of PDHK2 activity (residual PDH activity, NADH absorbance at 340 nm); type: biochemical; conditions: PDH/hPDHK2 complex, PDHK reaction 45 min at room temperature
T1 construct: made in house; host or cells: Escherichia coli BL21(DE3), pET-17b vector
Description: In the case of human PDHK2 (hPDHK2, NCBI Reference Database Accession number NM_002611.4), modified hPDHK2 cDNA wherein FLAG-Tag sequence was added to the N terminus of hPDHK2 cDNA clone (pReceiver-M01/PDK2-GeneCopoeia) as the base was prepared by polymerase chain reaction (PCR) and ligated to the NdeI/EcoRI site of pET-17b vector (Merck KGaA, Catalog Number 69663-3). The recombinant construct was transformed into Escherichia coli DH5α. The recombinant clones were identified, and plasmid DNA was isolated and subjected to the DNA sequence analysis. One clone which had the expected nucleic acid sequence was selected for expression work.
For expression of hPDHK2 activity, Escherichia coli strain BL21(DE3) cells (Merck KGaA, Catalog Number 69450-4) were transformed with the pET17b vector containing modified hPDHK2 cDNA. The Escherichia coli were grown to an optical density 0.6 ([…]) at 30° C. Protein expression was induced by the addition of 500 μmol/L isopropyl-β-thiogalactopyranoside. The Escherichia coli were cultured at 20° C. for 17-18 hr and harvested by centrifugation. The harvested Escherichia coli was resuspended in a suspension buffer (20 mmol/L HEPES-NaOH, 500 mmol/L sodium chloride, 1% ethylene glycol, 0.1% Pluronic (registered trademark) F-68 (pH 8.0), cOmplete, EDTA-free (Roche) (pH 8.0)), and disrupted by a microfluidizer M-110H (MIZUHO INDUSTRIAL CO., LTD.). The precipitate was removed by centrifugation and the supernatant was added to DDDDK-tagged Protein PURIFICATION GEL (MEDICAL & BIOLOGICAL LABORATORIES CO., LTD., Code No. 3329). DDDDK-tagged Protein PURIFICATION GEL was washed with a washing buffer (20 mmol/L HEPES-NaOH, 500 mmol/L sodium chloride, 1% ethylene glycol, 0.1% Pluronic F-68 (pH 8.0)) and the bound protein was eluted with elution buffer 1 (20 mmol/L HEPES-NaOH, 100 μg/mL peptide (amino acid sequence DYKDDDDK) (SEQ ID NO: 1), 500 mmol/L sodium chloride, 1% ethylene glycol, 0.1% Pluronic F-68 (pH 8.0)). The eluted fractions containing FLAG-Tagged protein were pooled, concentrated by an ultrafiltration method, added to a gel filtration column (HiLoad 26/60 Superdex 200 (GE Healthcare Life Sciences, Code No. 17-1070-01)), and eluted with elution buffer 2 (20 mmol/L HEPES-NaOH, 150 mmol/L sodium chloride, 0.5 mmol/L ethylenediaminetetraacetic acid (EDTA), 1% ethylene glycol, 0.1% Pluronic F-68 (pH 8.0)). The eluted fractions were pooled and preserved at −80° C.
PDH (porcine heart PDH complex, Sigma P7032) and 0.5 μg/mL hPDHK2 were mixed in an assay buffer (50 mmol/L 3-morpholinopropanesulfonic acid (pH 7.0), 20 mmol/L dipotassium hydrogen phosphate, 60 mmol/L potassium chloride, 2 mmol/L magnesium chloride, 0.4 mmol/L EDTA, 0.2% poloxamer, 2 mmol/L dithiothreitol) so that the final concentration of PDH was 0.025 U/mL, and the mixture was incubated at 4° C. overnight to obtain a PDH/hPDHK2 complex solution.
PDH was mixed with the assay buffer so that the final concentration was 0.025 U/mL, and the mixture was incubated at 4° C. overnight to prepare a PDH solution.
The test compounds were diluted with DMSO. To measure an inhibitory action of the test compound on the PDHK activity in the PDH/hPDHK2 complex solution, PDH/hPDHK2 complex solution (20 μL), test compound (1.5 μL) and 1.06 μmol/L ATP (diluted with assay buffer) (8.5 μL) were added to a 384 well microplate (Greiner Bio-One 781801) and PDHK reaction was performed at room temperature for 45 min (test compound well). DMSO (1.5 μL) was added to control wells instead of test compound. In addition, DMSO (1.5 μL) was added to blank wells instead of the test compound, and PDH solution was added instead of the PDH/hPDHK2 complex solution. To measure an inhibitory action of the test compound on the PDHK activity inherent in the PDH solution, a test compound was added and the PDH solution instead of the PDH/hPDHK2 complex solution was added to a blank+test compound well. […]

Going from `C[C@H]1Cn2nc(C(C)(O)C(F)(F)F)cc2-c2cnc([C@@](C)(O)C(F)(F)F)n21` (mixture of isomers) [Example 26] to `C[C@H]1Cn2nc(C(F)(F)F)cc2-c2cnc([C@@](C)(O)C(F)(F)F)n21` [Example 4], the IC50 falls from 31 nM to 14 nM (2.2-fold).

`C[C@H]1Cc2ccccc2-c2cnc([C@@](C)(O)C(F)(F)F)n21` (racemic) [Example 1, 1,1,1-trifluoro-2-(5-methyl-5,6-dihydroimidazo[5,1-a]isoquinolin-3-yl)propan-2-ol] and `C[C@H]1Cc2cc(C#N)ccc2-c2cnc([C@@](C)(O)C(F)(F)F)n21` (racemic) [Example 5] are within 1.5-fold of each other in IC50: 16 nM for the first, 21 nM for the second.

`C[C@H]1Cc2c(C(F)(F)F)noc2-c2cnc([C@@](C)(O)C(F)(F)F)n21` (racemic) [Example 3] and `C[C@H]1Cc2c(C(C)(C)O)noc2-c2cnc([C@@](C)(O)C(F)(F)F)n21` (racemic) [Example 25] are within 1.5-fold of each other in IC50: 17 nM for the first, 18 nM for the second.

Going from `C[C@H]1Cc2cnc(C(F)(F)F)nc2-c2cnc([C@@](C)(O)C(F)(F)F)n21` (racemic) [Example 6, 1,1,1-trifluoro-2-(6-methyl-2-(trifluoromethyl)-5,6-dihydroimidazo[1′,5′:1,2]pyrido[3,4-d]pyrimidin-8-yl)propan-2-ol] to `C[C@H]1Cn2c(cnc2C(F)(F)F)-c2cnc([C@@](C)(O)C(F)(F)F)n21` [Example 7], the IC50 falls from 220 nM to 7.5 nM (29-fold).

Compared with `C[C@H]1Cc2c(C(F)(F)F)nn(C)c2-c2cnc([C@@](C)(O)C(F)(F)F)n21` (racemic) [Example 24, 2-(1,5-dimethyl-3-(trifluoromethyl)-4,5-dihydro-1H-imidazo[1,5-a]pyrazolo[3,4-c]pyridin-7-yl)-1,1,1-trifluoropropan-2-ol], `C[C@H]1Cc2c(C(F)(F)F)n[nH]c2-c2cnc([C@@](C)(O)C(F)(F)F)n21` (racemic) [Example 50, 1,1,1-trifluoro-2-(5-methyl-3-(trifluoromethyl)-4,5-dihydro-1H-imidazo[1,5-a]pyrazolo[3,4-c]pyridin-7-yl)propan-2-ol] is lower in IC50: greater than 100 nM for the first, 27 nM for the second. The second is the more potent here.

`C[C@H]1Cc2c(C3CC3)noc2-c2cnc([C@@](C)(O)C(F)(F)F)n21` (racemic) [Example 34, 2-(3-cyclopropyl-5-methyl-4,5-dihydroimidazo[1,5-a]isoxazolo[5,4-c]pyridin-7-yl)-1,1,1-trifluoropropan-2-ol] and `C[C@H]1Cc2c(noc2C2CC2)-c2cnc([C@@](C)(O)C(F)(F)F)n21` (racemic) [Example 35, 2-(3-cyclopropyl-5-methyl-4,5-dihydroimidazo[1,5-a]isoxazolo[3,4-c]pyridin-7-yl)-1,1,1-trifluoropropan-2-ol] are within 1.5-fold of each other in IC50: 21 nM for the first, 19 nM for the second.

First: C[C@H]1Cn2c(nnc2C(F)(F)F)-c2cnc([C@@](C)(O)C(F)(F)F)n21 [Example 2, (R)-1,1,1-trifluoro-2-((S)-6-methyl-3-(trifluoromethyl)-5,6-dihydroimidazo[1,5-a] [1,2,4]triazolo[3,4-c]pyrazin-8-yl)propan-2-ol]
Second: C[C@H]1Cn2c(nnc2C(C)(C)C(F)(F)F)-c2cnc([C@@](C)(O)C(F)(F)F)n21 [Example 39]
The IC50 of the first is 3.2-fold higher: 26 nM for the first, 8.1 nM for the second.

Going from `C[C@H]1Cn2nccc2-c2cnc([C@@](C)(O)C(F)(F)F)n21` [Example 8] to `Cc1cc2n(n1)C[C@H](C)n1c-2cnc1[C@@](C)(O)C(F)(F)F` [Example 9], the IC50 rises from 7.7 nM to 13 nM (1.7-fold). The first is the more potent here.

First: C[C@H]1Cn2nc(C3CC3)cc2-c2cnc([C@@](C)(O)C(F)(F)F)n21 [Example 10]
Second: C[C@H]1Cn2nc(O)cc2-c2cnc([C@@](C)(O)C(F)(F)F)n21 [Example 28]
The IC50 of the first is 1.7-fold lower: 13 nM for the first, 22 nM for the second. The first is the more potent here.

Going from `C[C@H]1Cn2ncc(Cl)c2-c2cnc([C@@](C)(O)C(F)(F)F)n21` [Example 11] to `Cc1cnn2c1-c1cnc([C@@](C)(O)C(F)(F)F)n1[C@@H](C)C2` [Example 31], the IC50 rises from 34 nM to 81 nM (2.4-fold).

Compared with `CC[C@H]1Cn2nc(C(F)(F)F)cc2-c2cnc([C@@](C)(O)C(F)(F)F)n21` [Example 12], `C[C@H]1Cn2nc(C(F)(F)F)cc2-c2nnc([C@@](C)(O)C(F)(F)F)n21` [Example 13, (R)-1,1,1-trifluoro-2-((S)-5-methyl-9-(trifluoromethyl)-5,6-dihydropyrazolo[1,5-a] [1,2,4]triazolo[3,4-c]pyrazin-3-yl)propan-2-ol] is lower in IC50: greater than 100 nM for the first, 13 nM for the second.

Going from `C[C@H]1Cn2c(nnc2C2CC2)-c2cnc([C@@](C)(O)C(F)(F)F)n21` [Example 14] to `Cc1nnc2n1C[C@H](C)n1c-2cnc1[C@@](C)(O)C(F)(F)F` [Example 16], the IC50 rises from 6.3 nM to 12 nM (1.9-fold). The first is the more potent here.

Going from `C[C@H]1Cn2nc(C(C)(C)C)cc2-c2cnc([C@@](C)(O)C(F)(F)F)n21` [Example 15] to `C[C@H]1Cn2nc(C(C)(C)O)cc2-c2cnc([C@@](C)(O)C(F)(F)F)n21` [Example 20], the IC50 rises from 14 nM to 22 nM (1.6-fold). The first is the more potent here.

Going from `C[C@H]1Cn2c(nnc2C2(C)CC2)-c2cnc([C@@](C)(O)C(F)(F)F)n21` [Example 17] to `C[C@H]1Cn2c(nnc2C2(C(F)(F)F)CC2)-c2cnc([C@@](C)(O)C(F)(F)F)n21` [Example 40], the IC50 rises from 7.3 nM to 11 nM (1.5-fold). The first is the more potent here.

First: C[C@H]1Cn2c(C(F)(F)F)cnc2-c2cnc([C@@](C)(O)C(F)(F)F)n21 [Example 18]
Second: C[C@H]1Cn2cc(C(F)(F)F)nc2-c2cnc([C@@](C)(O)C(F)(F)F)n21 [Example 19]
The IC50 of the first is 1.7-fold lower: 6.5 nM for the first, 11 nM for the second.

Compared with `C[C@H]1Cn2c(-c3ccc(F)cc3)nnc2-c2cnc([C@@](C)(O)C(F)(F)F)n21` [Example 21], `C[C@H]1Cn2nc(C(=O)O)cc2-c2cnc([C@@](C)(O)C(F)(F)F)n21` [Example 41] is 3.3-fold higher in IC50: 6.3 nM for the first, 21 nM for the second.

Going from `C[C@H]1Cn2nc(C(=O)N(C)C)cc2-c2cnc([C@@](C)(O)C(F)(F)F)n21` [Example 22] to `C[C@H]1Cn2nc(CO)cc2-c2cnc([C@@](C)(O)C(F)(F)F)n21` [Example 36], the IC50 rises from 12 nM to 19 nM (1.6-fold). The first is the more potent here.

Going from `C[C@H]1Cn2nc(OC(F)F)cc2-c2cnc([C@@](C)(O)C(F)(F)F)n21` [Example 23, (R)-2-((S)-9-(difluoromethoxy)-5-methyl-5,6-dihydroimidazo[1,5-a]pyrazolo[5,1-c]pyrazin-3-yl)-1,1,1-trifluoropropan-2-ol] to `C[C@H]1Cn2nc(C(F)F)cc2-c2cnc([C@@](C)(O)C(F)(F)F)n21` [Example 29], the IC50 rises from 13 nM to 38 nM (2.9-fold). The first is the more potent here.

`C[C@H]1Cn2nc(OCc3ccccc3)cc2-c2cnc([C@@](C)(O)C(F)(F)F)n21` [Example 27] and `C[C@H]1Cn2nc(OCCC(C)(C)O)cc2-c2cnc([C@@](C)(O)C(F)(F)F)n21` [Example 30] are within 1.5-fold of each other in IC50: 11 nM for the first, 12 nM for the second.

`COc1ccc(COCc2cc3n(n2)C[C@H](C)n2c-3cnc2[C@@](C)(O)C(F)(F)F)cc1` [Example 33] and `C[C@H]1Cn2nc(C=O)cc2-c2cnc([C@@](C)(O)C(F)(F)F)n21` [Example 37] are within 1.5-fold of each other in IC50: 29 nM for the first, 21 nM for the second.

Compared with `C[C@H]1Cn2nc(C(=O)N3CC(F)(F)C3)cc2-c2cnc([C@@](C)(O)C(F)(F)F)n21` [Example 38], `C[C@H]1Cn2nc(C#N)cc2-c2cnc([C@@](C)(O)C(F)(F)F)n21` [Example 42] is 1.7-fold higher in IC50: 14 nM for the first, 24 nM for the second. The first is the more potent here.

same assay, conditions: at 0.1 μM, given when IC50 value could not be calculated; read-out: hPDHK2 inhibitory rate

Compared with `C[C@H]1Cc2c(C(F)(F)F)nn(C)c2-c2cnc([C@@](C)(O)C(F)(F)F)n21` (racemic) [Example 24, 2-(1,5-dimethyl-3-(trifluoromethyl)-4,5-dihydro-1H-imidazo[1,5-a]pyrazolo[3,4-c]pyridin-7-yl)-1,1,1-trifluoropropan-2-ol], `CC[C@H]1Cn2nc(C(F)(F)F)cc2-c2cnc([C@@](C)(O)C(F)(F)F)n21` [Example 12] is higher in inhibition at 0.1 µM: 31% for the first, 35% for the second.
